Data set [1] in a line: Intrinsic clearance in mouse hepatocytes assessed per 10^6 cells.
A short description of data set [2]: Stability in mouse hepatocytes assessed as half life.
Data set [3] can be described thus: Apparent permeability from basolateral to apical side in human Caco2. To be noted: Caco-2. (In general: Caco-2 monolayers are a common model of the intestinal barrier.)
The nature of data set [4]: Apparent permeability from apical to basolateral side in human Caco2. As to conditions: Caco-2.
Data set [5] can be described thus: Solubility of compound by turbidimetric assay.
The nature of data set [6]: Plasma protein binding in human.
The nature of data set [7]: Microsomal stability in human liver microsomes assessed as half life. In general terms: Microsomes from liver hold many membrane-bound enzymes, among them those of drug oxidation.
Data set [8] in a line: Microsomal stability in mouse liver microsomes assessed as half life.
A short description of data set [9]: Plasma protein binding in mouse.
The nature of data set [10]: Intrinsic clearance in mouse liver microsomes.
A short description of data set [11]: Intrinsic clearance in human liver microsomes.
Data set [12] is described as follows: Drug level in rat treated with methyl ethyl(2-(3-(trifluoromethyl)phenyl)benzo[d]oxazol-5-yl)phosphinate assessed as compound formation. The data set is classed as ADME. To be noted: in vivo.
Data set [13] in a line: Aqueous kinetic solubility of the compound. As to conditions: buffer.
The species named for data set [14] is Mus musculus. Kind of data set: Upregulation of utrophin expression in dystrophin-deficient mouse myoblasts at 10 uM after 72 hrs by Western blot analysis. The data set is classed as functional. A general note: Immunoblotting shows a protein as a band on a membrane.
Data set [15] is described as follows: in vivo. As to conditions: mdx, mouse, iv, 1 mg/kg.
The test system of data set [16] is Mus musculus. Kind of data set: Protection against stretch-induced damage in mdx C57BL/10 mouse assessed as improvement in muscle resistance at 30 mg/kg, po qd for 5 weeks. The data set is classed as functional.
A short description of data set [17]: Half life in mdx mouse at 5 mg/kg, po after 1 day. To be noted: in vivo, t1/2.
The conditions of data set [18]: mouse, in vivo, po, 5 mg/kg, 168 h.
Data set [19] can be described thus: Volume of distribution in mdx mouse at 1 mg/kg, iv. As to conditions: in vivo.
For data set [20] the following is noted: mouse, in vivo, po, 5 mg/kg, 24 h.
For data set [21] the following is noted: mouse, in vivo, po, 5 mg/kg, 24 h. The source holds these as a separate data set.
Data set [22] relates to Mus musculus. As to the kind of experiment: Protection against DMD in mdx C57BL/10 mouse assessed as force drop in extensor digitorum longus muscle at 30 mg/kg, po qd for 5 weeks measured post-last dose (reference value: 44.9%). The data set is classed as functional.
For data set [23] the following is noted: mouse, in vivo, iv, 1 mg/kg.
Data set [24] can be described thus: Drug metabolism in mouse hepatocytes assessed as interconversion to opposite enantiomeric form after 60 mins. To be noted: 1 h.
The conditions of data set [25]: mouse, in vivo, po, 5 mg/kg, 168 h. The source holds these as a separate data set.
Data set [26] in a line: Drug metabolism in human hepatocytes assessed as interconversion to opposite enantiomeric form after 60 mins. To be noted: 1 h.
For data set [27] the following is noted: mouse, in vivo, po, 5 mg/kg, 24 h. The source holds these as a separate data set.
Data set [28] is described as follows: in vivo. As to conditions: mdx, mouse, po, 5 mg/kg, F.
For data set [29], the species on record is Mus musculus. Kind of data set: Upregulation of utrophin expression in dystrophin-deficient mouse myoblasts after 72 hrs by Western blot analysis. It is filed as functional.
For data set [30] the following is noted: mouse, in vivo, po, 5 mg/kg, 168 h. The source holds these as a separate data set.
In data set [31] the target is 5-hydroxytryptamine receptor 2B (Homo sapiens, UniProt P41595). As to the kind of experiment: Antagonist activity at human Gq-coupled 5HT2B receptor expressed in HEK293 cells assessed as inhibition of serotonin-induced calcium mobilization by calcium-sensitive dye based FLIPR assay. It is filed as functional, cell-based.
A short description of data set [32]: Drug metabolism in human hepatocytes assessed as compound racemization after 60 mins. To be noted: 1 h.
Data set [33] in a line: Drug metabolism in mouse hepatocytes assessed as compound racemization after 60 mins. To be noted: 1 h.
The conditions of data set [34]: mouse, in vivo, iv, 1 mg/kg. The source holds these as a separate data set.
The nature of data set [35]: Stability in human hepatocytes assessed as half life after 60 mins.
The nature of data set [36]: Stability in mouse hepatocytes assessed as half life after 60 mins.
Data set [37] can be described thus: Intrinsic clearance in mouse hepatocytes after 60 mins. To be noted: 1 h.
Data set [38] is described as follows: Intrinsic clearance in human hepatocytes after 60 mins. As to conditions: 1 h.

In brackets after ≈: the same amount, converted by molar mass. Activity calls are given as the source filed them. The rule behind the calls is not given here.

Chain of 5-hydroxytryptamine receptor 2B (P41595 whole entry): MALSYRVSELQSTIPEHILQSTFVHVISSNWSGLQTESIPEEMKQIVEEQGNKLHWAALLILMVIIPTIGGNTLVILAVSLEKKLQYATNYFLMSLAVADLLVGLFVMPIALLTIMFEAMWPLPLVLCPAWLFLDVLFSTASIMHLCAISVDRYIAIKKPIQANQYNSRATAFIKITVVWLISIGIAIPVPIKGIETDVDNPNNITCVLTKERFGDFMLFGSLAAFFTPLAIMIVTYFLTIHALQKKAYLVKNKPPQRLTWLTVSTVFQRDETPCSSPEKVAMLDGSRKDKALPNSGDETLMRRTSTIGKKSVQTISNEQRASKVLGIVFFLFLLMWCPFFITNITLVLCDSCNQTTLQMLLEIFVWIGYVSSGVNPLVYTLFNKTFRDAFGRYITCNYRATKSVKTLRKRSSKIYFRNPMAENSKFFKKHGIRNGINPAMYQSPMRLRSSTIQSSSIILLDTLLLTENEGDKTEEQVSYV

The term hepatocyte CLint denotes the capacity of the preparation to metabolise the compound, expressed as a volume cleared per time. High values mean faster metabolism, low ones greater metabolic stability. A word on the half-life: it is the time in which the quantity being followed falls by half. Usually Papp B→A stands for how fast a substance crosses the layer from the basolateral side. As usually defined, the Papp A→B is the apparent permeability from the apical to the basolateral side of a cell layer. On to `CCP(=O)(OC1CCC1)c1ccc2oc(-c3cccc(C(F)(F)F)c3)nc2c1` (configuration not stated), for which the hepatocyte CLint in [1] came to 32.8 µL/min/1e6 cells. Besides, in data set [2], the half-life turned out to be 0.35 h. Moreover, the Papp B→A in [3] was 3.98 ×10⁻⁶ cm/s. In addition, in [4], the Papp A→B stood at 6.38 ×10⁻⁶ cm/s.

What is called solubility (kinetic) is solubility judged after dilution from a stock solution rather than from solid. In data set [5], `O=S1(=O)CCCN1c1ccc2oc(-c3ccc4ccccc4c3)nc2c1` returned a kinetic solubility of 3 to 10 µM (≈ 1.09 to 3.64 µg/mL).

The term fraction unbound denotes the share of the substance not bound to proteins or other matrix. A lower fraction unbound goes with extensive binding. Take `COP(=O)(c1ccc2nc(-c3ccc(F)cc3)oc2c1)C(C)C` (configuration not stated): the fraction unbound is 0.04 in data set [6] and 0.17 in data set [9]. This molecule returned a kinetic solubility in data set [5] greater than 100 µM. Moreover, the half-life was greater than 17.1 h in [7] (liver microsomes) and 0.45 h in data set [8] (liver microsomes).

For the molecule `CC(C)C(=O)Nc1ccc2oc(-c3ccc4ccccc4c3)nc2c1`, the kinetic solubility in data set [5] was 1 to 3 µM (≈ 0.33 to 0.991 µg/mL).

`CC(=O)Nc1ccc2oc(-c3ccc4ccccc4c3)nc2c1` registered a solubility (kinetic) in [5] of 3 to 10 µM (≈ 0.907 to 3.02 µg/mL).

As a reminder, the microsomal CLint is the capacity of the preparation to metabolise the compound, expressed as a volume cleared per time. Regarding `CCOP(=O)(CC)c1ccc2oc(-c3ccc(F)cc3)nc2c1` (configuration not stated), the figures for the fraction unbound in data set [6] and in data set [9] were 0.08 and 0.16, respectively. Also, the microsomal CLint in [10] (liver microsomes) is 39.1 µL/min/mg; in data set [11] (liver microsomes) it was 2.41 µL/min/mg. This molecule displayed a kinetic solubility in data set [5] greater than 100 µM. Further, the half-life was determined as 9.58 h in [7] (liver microsomes) and 0.6 h in data set [8] (liver microsomes).

Take `CCP(=O)(O)c1ccc2oc(-c3cccc(C(F)(F)F)c3)nc2c1`: the Drug uptake result in data set [12] is “Active”. In data set [1], this molecule registered a hepatocyte CLint of less than 2.89 µL/min/1e6 cells. In data set [6], this molecule came in with a fraction unbound of 0.01. In addition, the half-life in [2] stood at 4 h. In addition, the kinetic solubility in data set [13] is 337 µM (≈ 120 µg/mL).

`CCP(=O)(OC1CC1)c1ccc2oc(-c3cccc(C(F)(F)F)c3)nc2c1` (configuration not stated): the intrinsic metabolic clearance (hepatocyte CLint) in [1] was 8.65 µL/min/1e6 cells. Also, the half-life in [2] was 1.33 h. Further, in [3], the Papp B→A was found to be 5.75 ×10⁻⁶ cm/s. Besides, the Papp A→B in data set [4] came out at 10.6 ×10⁻⁶ cm/s.

In data set [1], `CCP(=O)(OC1CC1)c1ccc2nc(-c3cccc(C(F)(F)F)c3)oc2c1` (configuration not stated) had a hepatocyte CLint of 8.92 µL/min/1e6 cells. In addition, the half-life in [2] was 1.3 h. For the same molecule, in data set [13], the solubility (kinetic) turned out to be 652 µM (≈ 258 µg/mL). Further, in [9], the fraction unbound is 0.01.

As for `CCP(=O)(OC)c1ccc2nc(-c3cnc4ccccc4c3)oc2c1` (configuration not stated), the fraction unbound is 0.1 in [6] and 0.23 in [9]. In [5], this molecule yielded a solubility (kinetic) greater than 100 µM. In data set [8] (liver microsomes), the half-life was greater than 73.3 h.

As to `CCP(=O)(OC)c1ccc2nc(-c3ccc(F)cc3)oc2c1` (configuration not stated), the outcome in data set [14] was inactive.

As a reminder, the Cmax is the maximum level reached in the sampled fluid or tissue. The AUC is concentration integrated over time. High values mean more exposure, low ones less exposure. A word on the Vd: it is the apparent volume that relates the amount in the body to the concentration in plasma or blood. Low readings indicate little distribution into tissue, high ones wide distribution into tissue. The term bioavailability denotes the share of a dose that reaches the circulation, judged against a reference dose that is usually intravenous. High values mean good availability, low ones poor availability. Regarding `CCP(=O)(OC)c1ccc2oc(-c3ccc(F)cc3)nc2c1` (racemic) [listing 1 of 2 here], the values for the Cmax in [15], in data set [25] and in data set [27] were 562 ng/mL, 566 ng/mL and 734 ng/mL, respectively. For the same molecule, the Activity in data set [16] is on record as 29%; in data set [22], 31.8%. For the same molecule, the fraction unbound in data set [6] (PPB) is 0.12. The half-life at 24 h in [17] is 2.25 h. For the same molecule, the AUC in [18] was found to be 1160 ng·h/mL; in data set [20], 1660 ng·h/mL; in [23], 431 ng·h/mL. Also, the Vd in data set [19] (mdx, Vd) was determined as 1.46 L/kg. Moreover, the kinetic solubility in data set [5] is greater than 100 µM. For the same molecule, the half-life came to 6.38 h in data set [7] (microsomes) and 1.43 h in data set [8] (microsomes). In [21], the F worked out at 77.2%. In addition, the Drug metabolism in [24] and in data set [26] was less than 1% each time. Further, the PPB in [9] turned out to be 75%. The same molecule came in with a bioavailability at 168 h in [28] of 53.7%.

With `CCP(=O)(OC)c1ccc2oc(-c3ccc(F)cc3)nc2c1` (racemic) [listing 2 of 2 here], in data set [29], the Activity entry was “Dose-dependent effect”.

For `CCP(=O)(OC)c1ccc2oc(-c3cccc(C(F)(F)F)c3)nc2c1` (racemic), the Activity entry in data set [29] was “Dose-dependent effect”.

The EC50 is the concentration at which the effect is half-maximal. For `CCP(=O)(OC)c1ccc2oc(-c3ccc(F)cc3)nc2c1` (single isomer, unassigned; (+)), the Activity in [16] stood at 35%; in [22], 29.4%. Moreover, the AUC in [18] stood at 1620 ng·h/mL; in [20], 1570 ng·h/mL; in data set [23], 510 ng·h/mL. In addition, the results for the F in data set [30] and in [21] were 63.7% and 61.6%, respectively. In addition, the Cmax in data set [25] came out at 736 ng/mL; in data set [27], 542 ng/mL. The PPB in [9] turned out to be 80%. Besides, the EC50 in [31] was 9.3 µM.

In the case of `CCP(=O)(OC)c1ccc2oc(-c3ccc(F)cc3)nc2c1` (single isomer, unassigned; (-)), the Drug metabolism result in [32] and in data set [33] was “Metabolite_Notdetected” each time. The results for the PPB in data set [6] and in [9] were 85% and 77%, respectively. Moreover, the AUC was 513 ng·h/mL in [18], 444 ng·h/mL in data set [20] and 226 ng·h/mL in [23]. For the same molecule, the Vd in data set [19] came out at 1.58 L/kg. The F is 45.4% in data set [30] and 39.4% in data set [21]. The Cmax in [34] amounted to 477 ng/mL; in [25], 299 ng/mL; in data set [27], 352 ng/mL. The half-life at 1 h in data set [35] was greater than 7.67 h. For the same molecule, the Activity in [22] is given as 44.4%. Moreover, the EC50 in [31] came out at 50 µM.

As for `CCS(=O)(=O)c1ccc2oc(-c3ccc4ccccc4c3)nc2c1` [EZUTROMID], the Drug metabolism entry in data set [32] and in data set [33] was “Metabolite_Notdetected” throughout. Moreover, the half-life at 1 h in data set [36] is 0.433 h; in [35], 0.75 h. Further, the values for the CLH in data set [37] and in data set [38] were 54 µL/min and 31 µL/min, respectively. For the same molecule, the figures for the microsomal CLint in data set [10] (microsomes) and in [11] (microsomes) were 21 µL/min/mg and 14.4 µL/min/mg, respectively. Also, the solubility (kinetic) in [5] lay in the range of 3 to 10 µM (≈ 1.01 to 3.37 µg/mL). Further, the results for the half-life in [7] (microsomes) and in data set [8] (microsomes) were 1.6 h and 1.1 h, respectively. Also, the fraction unbound in data set [9] was less than 0.01.

(Values after ChEMBL document CHEMBL4619775, “2-Arylbenzo[d]oxazole Phosphinate Esters as Second-Generation Modulators of Utrophin for the Treatment of Duchenne Muscular Dystrophy” (J Med Chem, 2020).)
